Results from patent US11104683B2, “Thioglycoluril compound, and method for producing same” (NISSAN CHEMICAL CORPORATION, priority 2016, dated 2021).

Assay: Solubility in solvents (PGME or PGMEA) commonly used in semiconductor device production
Format: physicochemical
Conditions: for Solubility (g/100 g-PGMEA): solvent propylene glycol 1-monomethyl ether 2-acetate (PGMEA); for Solubility (g/100 g-PGME): solvent propylene glycol 1-monomethyl ether (PGME)
Description: In order to examine the solubilities of TMOM-TGU produced in Example 2, TMOM-DTGU produced in Example 4, and TMOM-GU as Comparative Example, these compounds were dissolved in propylene glycol 1-monomethyl ether (PGME) or propylene glycol 1-monomethyl ether 2-acetate (PGMEA), each of which is a solvent commonly used in, for example, production processes for semiconductor devices.

Solubility (g/100 g-PGMEA) | Solubility (g/100 g-PGME) | solubility in a solvent (in words) (conclusion from Table 1 (PGME, PGMEA)) | SMILES
12.5 | 20 |  | COCN1C(=O)N(COC)C2C1N(COC)C(=O)N2COC (stereo not shown) [Comparative Example, 1,3,4,6-tetrakis(methoxymethyl)glycoluril, reference compound]
25 | 20 |  | COCN1C(=S)N(COC)C2C1N(COC)C(=S)N2COC (stereo not shown) [Example 4, 1,3,4,6-tetrakis(methoxymethyl)dithioglycoluril]
100 | 100 | particularly excellent solubility | COCN1C(=O)N(COC)C2C1N(COC)C(=S)N2COC (stereo not shown) [Example 2, 1,3,4,6-tetrakis(methoxymethyl)monothioglycoluril]
